Results: PubChem BioAssay AID1918939 (Molecular Pharmacology Branch, DTP, NCI, 2023)

System: 653999-131-R-J2-PDC complex spheroid viability
Test: Anticancer human tumor 653999-131-R-J2-PDC patient-derived lung adenocarcinoma cell line growth inhibition
Conditions: for IC50: curve of first compound; for viability, T/C: stronger effect = lower value; active = viability on the fitted dose curve at most 10% of control; inactive = the rest
Excerpt: Multicellular complex tumor spheroid response to LSD1 Inhibitor Iadademstat in combination with a variety of drugs and investigational agents in selected tumor cell lines
The current study was undertaken to assess response to LSD1 inhibitors in combination with standard-of-care drugs and investigational agents in solid tumor complex spheroid models as well as in the K-562 leukemia. Complex spheroids include a stromal component modeled by human endothelial cells (HUVEC) and fibroblasts modeled by human mesenchymal stem cells (MSCs). The concentration ranges selected for each drug and investigational agent were based upon clinically achievable concentrations if the clinical Cmax of the agent was known.
Compounds. The drugs and investigational agents used in this study are listed on Table 1. All of the agents used, including staurosporine (NSC755774) and gemcitabine (NSC613327), were obtained from the Developmental Therapeutics Program, NCI. FDA-approved anticancer drugs are available from the NCI at http://dtp.nci.nih.gov/branches/dscb/oncology_drugset_explanation.html. Drugs and investigational agents were >95% pure by proton nuclear magnetic resonance (NMR) and liquid chromatography/mass spectrometry (LC/MS). Stock solutions were prepared at 400x in DMSO, stored at -70 degrees C, and diluted in fresh medium prior to their use. The final concentration of DMSO in cell culture wells never exceeded 0.25% (v/v). The FDA-approved anticancer drug set is available from the Developmental Therapeutics Program at https://dtp.cancer.gov/organization/dscb/obtaining/available_plates.htm. All drugs and investigational agents were tested over a range starting from a high concentration at or near the clinical Cmax and decreasing in half-log increments. If the clinical Cmax for an agent had not been determined, the highest concentration tested was 10 microM.
Cell Lines. The patient-derived cancer cell (PDC) lines: 292921-168-R-J2-PDC, K24384-001-R-PDC, and 521955-158-R2-J5-PDC pancreatic carcinomas, 556581-035-R-J1 ovarian carcinoma, 324938-238-R-J1-PDC, 855422-203-R-J1-PDC and 883617-216-R-J1-PDC urothelial bladder carcinomas, 743489-274-T-PDC renal cell carcinoma, 138582-R-J1 Merkel cell tumor, K60290-347-R-J1 and K57222-313-R-J1-PDC glioblastomas, 653999-131-R-J2-PDC, LG0703-F948-PDC, and 349418-098-R-PDC non-small cell lung carcinomas, 885512-296-R-J2-PDC, 171881-019-R-J1-PDC breast carcinomas and 186277-243-T-J2-PDC and 233499-124-R-J2-PDC colon carcinomas were obtained from the NCI Patient-Derived Models Repository (PDMR, https://pdmr.cancer.gov). The established cell lines NCI/ADR-RES (RRID:CVCL_14520 and OVCAR-5 (RRID:CVCL_1628) ovarian carcinomas, 786-O (RRID:CVCL_1051) and A498 (RRID:CVCL_A498) renal cell carcinoma, NCI-H211 (ATCC, cat. CRL-5824; RRID:CVCL_1529), NCI-H196 (ATCC, cat. CRL-5823, RRID:CVCL_1509), SW 1271 (ATCC, cat. CRL-2177, RRID:CVCL_1716) and NCI-H1876 (ATCC, cat. CRL-5902, RRID:CVCL_1503) small cell lung carcinomas, MDA-MB-231 (RRID:CVCL_0062) and MDA-MB-468 (RRID:CVCL_0419)breast carcinomas (10-12). Pooled donor human umbilical vein endothelial cells (HUVEC, Lonza, cat. CC-2519) and human mesenchymal stem cells (hMSC, Lonza, cat. PT-2501) were purchased from Lonza (Walkersville, MD).
Cell Culture. All cells were maintained in an incubator at 37 degrees C and 5% CO2 with 95% humidity. The PDC lines were cultured according to standard operating procedures established by the NCI PDMR (https://pdmr.cancer.gov). Briefly all PDCs were thawed and cultured in Matrigel-coated flasks prepared with a working solution of 1X Ham's F-12 nutrient mix, without supplementation (Invitrogen, Waltham, MA, cat. 11765054), 100 U/mL penicillin-streptomycin (Invitrogen, cat. 15140122), and 2.5% Matrigel (Corning Inc., Corning, NY, cat. 354248) for the first three passages. […]
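Also: spheroids exposed to agents for seven days before readout.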

Nc1ncn(C2CC(O)C(CO)O2)c(=O)n1 (stereo not given) + NC1CC1c1ccc(-c2cccc(O)c2)cc1
> 1000 nM: IC50 (second compound 0.1 µM) | IC50 (second compound 0.316 µM) | IC50 (second compound 1 µM) | IC50 (second compound 3.16 µM) | IC50 (second compound 10 µM)
inactive: viability, T/C (second compound 0.1 µM, first compound 0.00316 µM) 103% | viability, T/C (second compound 0.1 µM, first compound 0.01 µM) 101% | viability, T/C (second compound 0.1 µM, first compound 0.0316 µM) 96.3% | viability, T/C (second compound 0.1 µM, first compound 0.1 µM) 79.4% | viability, T/C (second compound 0.1 µM, first compound 0.316 µM) 83.6% | viability, T/C (second compound 0.1 µM, first compound 1 µM) 73.5% | viability, T/C (second compound 0.316 µM, first compound 0.00316 µM) 87.8% | viability, T/C (second compound 0.316 µM, first compound 0.01 µM) 113% | viability, T/C (second compound 0.316 µM, first compound 0.0316 µM) 87.8% | viability, T/C (second compound 0.316 µM, first compound 0.1 µM) 87.5% | viability, T/C (second compound 0.316 µM, first compound 0.316 µM) 85.4% | viability, T/C (second compound 0.316 µM, first compound 1 µM) 79.9% | viability, T/C (second compound 1 µM, first compound 0.00316 µM) 91.2% | viability, T/C (second compound 1 µM, first compound 0.01 µM) 92% | viability, T/C (second compound 1 µM, first compound 0.0316 µM) 95.5% | viability, T/C (second compound 1 µM, first compound 0.1 µM) 81.3% | viability, T/C (second compound 1 µM, first compound 0.316 µM) 86.5% | viability, T/C (second compound 1 µM, first compound 1 µM) 67.5% | viability, T/C (second compound 3.16 µM, first compound 0.00316 µM) 94% | viability, T/C (second compound 3.16 µM, first compound 0.01 µM) 112% | viability, T/C (second compound 3.16 µM, first compound 0.0316 µM) 93.7% | viability, T/C (second compound 3.16 µM, first compound 0.1 µM) 101% | viability, T/C (second compound 3.16 µM, first compound 0.316 µM) 93.8% | viability, T/C (second compound 3.16 µM, first compound 1 µM) 90% | viability, T/C (second compound 10 µM, first compound 0.00316 µM) 94.3% | viability, T/C (second compound 10 µM, first compound 0.01 µM) 103% | viability, T/C (second compound 10 µM, first compound 0.0316 µM) 90.7% | viability, T/C (second compound 10 µM, first compound 0.1 µM) 93.5% | viability, T/C (second compound 10 µM, first compound 0.316 µM) 84.8% | viability, T/C (second compound 10 µM, first compound 1 µM) 95.6%

Nc1ccn(C2OC(CO)C(O)C2(F)F)c(=O)n1 (stereo not given) + NC1CC1c1ccc(-c2cccc(O)c2)cc1
inactive: viability, T/C (second compound 0.1 µM, first compound 0.000949 µM) 105% | viability, T/C (second compound 0.1 µM, first compound 0.003 µM) 92.4% | viability, T/C (second compound 0.1 µM, first compound 0.00949 µM) 67.2% | viability, T/C (second compound 0.1 µM, first compound 0.03 µM) 61.3% | viability, T/C (second compound 0.1 µM, first compound 0.0949 µM) 43.6% | viability, T/C (second compound 0.1 µM, first compound 0.3 µM) 52.2% | viability, T/C (second compound 0.316 µM, first compound 0.000949 µM) 82.1% | viability, T/C (second compound 0.316 µM, first compound 0.003 µM) 77.2% | viability, T/C (second compound 0.316 µM, first compound 0.00949 µM) 75.6% | viability, T/C (second compound 0.316 µM, first compound 0.03 µM) 51.2% | viability, T/C (second compound 0.316 µM, first compound 0.0949 µM) 43.5% | viability, T/C (second compound 0.316 µM, first compound 0.3 µM) 47% | viability, T/C (second compound 1 µM, first compound 0.000949 µM) 75.1% | viability, T/C (second compound 1 µM, first compound 0.003 µM) 80.9% | viability, T/C (second compound 1 µM, first compound 0.00949 µM) 64.7% | viability, T/C (second compound 1 µM, first compound 0.03 µM) 48.6% | viability, T/C (second compound 1 µM, first compound 0.0949 µM) 45.2% | viability, T/C (second compound 1 µM, first compound 0.3 µM) 44.9% | viability, T/C (second compound 3.16 µM, first compound 0.000949 µM) 83.4% | viability, T/C (second compound 3.16 µM, first compound 0.003 µM) 74.1% | viability, T/C (second compound 3.16 µM, first compound 0.00949 µM) 63.4% | viability, T/C (second compound 3.16 µM, first compound 0.03 µM) 57.4% | viability, T/C (second compound 3.16 µM, first compound 0.0949 µM) 47.3% | viability, T/C (second compound 3.16 µM, first compound 0.3 µM) 39.7% | viability, T/C (second compound 10 µM, first compound 0.000949 µM) 76% | viability, T/C (second compound 10 µM, first compound 0.003 µM) 70.8% | viability, T/C (second compound 10 µM, first compound 0.00949 µM) 68.9% | viability, T/C (second compound 10 µM, first compound 0.03 µM) 53.1% | viability, T/C (second compound 10 µM, first compound 0.0949 µM) 55.4% | viability, T/C (second compound 10 µM, first compound 0.3 µM) 51.5%
68.3 nM: IC50 (second compound 3.16 µM)
37.9 nM: IC50 (second compound 0.316 µM)
133 nM: IC50 (second compound 0.1 µM)
> 300 nM: IC50 (second compound 10 µM)
24.9 nM: IC50 (second compound 1 µM)
